From BindingDB's records for PubMed 36270088 (n/a, 2022) come the findings set out here.

The experiment in a line: Antagonist activity against CXCR4 in human SUP-T1 cells assessed as inhibition of SDF-1alpha-induced cell migration preincubated with cells for 30 mins followed by incubation with SDF-1alpha for 3 hrs by CellTiter-96 reagent based transwell assay.

With `CC(C)C[C@@H](N)C(=O)NCC(=O)N[C@H](C)C(=O)N[C@H](CO)C(=O)N[C@H](Cc1c[nH]c2ccccc12)C(=O)N[C@H](Cc1cnc[nH]1)C(=O)N[C@H](CCCNC(=N)N)C(=O)N1CCC[C@@H]1C(=O)N[C@H](CC(=O)O)C(=O)N[C@H](CCCCN)C(=O)N[C@H](CCCCN)C(=O)N[C@H](CCCNC(=N)N)C(=O)N(CCCCCC(=O)O)[C@@H](CCCCN)C(=O)N[C@@H](CCCNC(=N)N)C(=O)N[C@@H](CCCCN)C(=O)N[C@@H](CCC(N)=O)C(=O)N[C@@H](CCCNC(=N)N)C(=O)NCC(=O)N1CCC[C@H]1C(=O)NCC(=O)N[C@@H](CCCNC(=N)N)C(=O)N[C@@H](C)C(=O)N[C@@H](Cc1ccccc1)C(N)=O`, the IC50 turned out to be 6.08 µM.

Regarding `CC(C)C[C@@H](N)C(=O)NCC(=O)N[C@H](C)C(=O)N[C@H](CO)C(=O)N[C@H](Cc1c[nH]c2ccccc12)C(=O)N[C@H](Cc1cnc[nH]1)C(=O)N[C@H](CCCNC(=N)N)C(=O)N1CCC[C@@H]1C(=O)N[C@H](CC(=O)O)C(=O)N[C@H](CCCCN)C(=O)N[C@H](CCCCN)C(=O)N[C@H](CCCNC(=N)N)C(=O)N(CCCCCC(=O)O)[C@H](CCCCN)C(=O)N[C@H](CCCNC(=N)N)C(=O)N[C@H](CCCCN)C(=O)N[C@H](CCC(N)=O)C(=O)N[C@H](CCCNC(=N)N)C(=O)NCC(=O)N1CCC[C@@H]1C(=O)NCC(=O)N[C@H](CCCNC(=N)N)C(=O)N[C@H](C)C(=O)N[C@H](Cc1ccccc1)C(N)=O`, the IC50 turned out to be 0.87 µM.

Broadly, the IC50 is the midpoint of a concentration-inhibition curve.
